Test results reported in PubChem BioAssay (NCI).
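Values below derive from 48-hour exposures of cells grown in 96-well plates, with endpoints linearly interpolated between the two concentrations bracketing the appropriate inhibition level. GI50 is the concentration that inhibits growth by half. TGI denotes the concentration required for complete inhibition of growth.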 Where a SMILES comes first, the peptide text is derived from it. The star is where a group is joined. Trt = c1ccc(C(c2ccccc2)(c2ccccc2)*)cc1; Cbz = O=C(OCc1ccccc1)*

Legend:
Assay in all cases: NCI tumour cell line growth inhibition, 48 h
[1] = test system: MDA-MB-435
[2] = test system: DMS 114 small cell lung
[3] = test system: DMS 273 small cell lung
[4] = test system: KM20L2 colon
[5] = test system: M19-MEL melanoma
[6] = test system: RXF-631 renal
[7] = test system: XF 498 CNS
[8] = test system: SNB-78 CNS
[9] = test system: MDA-N

COc1cccc2c1cc1c3c(cc4c(c32)OCO4)C(=O)N1
GI50 [1]: 10.9 µM
TGI [1]: > 100 µM

Cn1nc(-c2ccccc2)c(C(=O)/C=C/c2ccc(Cl)cc2)c(N2CCCC2)c1=O
TGI [2]: 9.8 µM
TGI [3]: 24.2 µM
TGI [4]: 15.1 µM
TGI [5]: 23.2 µM
TGI [6]: 50.5 µM
TGI [7]: 28.3 µM

O=C(Nc1cccc(C(F)(F)F)c1)c1cc2ccccc2cc1O
GI50 [1]: 1.37 µM
TGI [1]: 4.72 µM

Cc1ccc(-c2n[nH]c(=O)c3noc(-c4ccc(C)cc4)c23)cc1
GI50 [1]: 0.235 µM
TGI [1]: 0.651 µM

Cc1ccc2nc(NC(=O)C(=O)CC(=O)c3cccc4ccccc34)sc2c1
TGI [3]: > 100 µM
TGI [4]: > 100 µM
TGI [5]: > 100 µM
TGI [8]: > 100 µM
TGI [7]: > 100 µM

N#C/C(=C\c1ccc2[nH]ccc2c1)C(=O)c1ccc(O)c(O)c1
TGI [2]: > 100 µM
TGI [3]: > 100 µM
TGI [4]: > 100 µM
TGI [5]: > 100 µM
TGI [1]: > 100 µM
TGI [9]: > 100 µM
TGI [8]: > 100 µM

COC(=O)C(=O)C(C(=O)C(=O)Nc1cc(Cl)c(Cl)cc1Cl)c1nc2ccc([N+](=O)[O-])cc2[nH]c1=O (stereo not drawn)
TGI [2]: > 100 µM
TGI [3]: > 100 µM
TGI [4]: > 100 µM
TGI [5]: > 100 µM
TGI [6]: > 100 µM
TGI [8]: > 100 µM
TGI [7]: > 100 µM

CC(=O)[C-](C(C)=O)c1ccccc1.CC(=O)[C-](C(C)=O)c1ccccc1.CC(=O)[C-](C(C)=O)c1ccccc1.[Cl-].[Zr+4]
GI50 [4]: > 100 µM
TGI [4]: > 100 µM

C/C(=N/O)c1ccc(Nc2cc(-n3ccnc3)c3ccccc3n2)cc1
GI50 [1]: 36.4 µM
TGI [1]: > 100 µM

CC(C(N)=O)N(C)C(=O)c1cnc2ccccc2c1 (stereo not drawn)
TGI [1]: > 100 µM
TGI [9]: > 100 µM

CCc1cc(Cc2ccc(C)c(NC(=O)C(=O)C3C(=O)NC(=O)NC3=O)c2CC)cc(C)c1NC(=O)C(=O)C1C(=O)NC(=O)NC1=O
TGI [2]: > 100 µM
TGI [3]: > 100 µM
TGI [4]: > 100 µM
TGI [5]: > 100 µM
TGI [6]: > 100 µM
TGI [8]: > 100 µM

S=c1c2ccccc2c(=S)n2n1CC=CC2
TGI [2]: > 100 µM
TGI [3]: > 100 µM
TGI [4]: > 100 µM
TGI [5]: > 100 µM
TGI [6]: > 100 µM
TGI [8]: > 100 µM

COC(=O)C(CSC(c1ccccc1)(c1ccccc1)c1ccccc1)NC(=O)C(CC(N)=O)NC(=O)OCc1ccccc1 (stereo not drawn) (Cbz-Asn-Cys(Trt)-OMe; configuration not given here)
GI50 [1]: 2.13 µM
TGI [1]: 5.2 µM

CCOC(=O)CC(NC(=O)c1ccc(N=NN(C)C)cc1)C(=O)OCC (stereo not drawn)
TGI [3]: > 100 µM
TGI [5]: > 100 µM

CC(=O)c1c2c(cc3c1CC1(C3)Cc3cc4c(c(C(=O)O)c3C1)CCC4)CCC2 (stereo not drawn)
TGI [2]: > 100 µM
TGI [3]: > 100 µM
TGI [5]: > 100 µM
TGI [8]: > 100 µM
TGI [7]: > 100 µM

COc1ccc(NC(=O)C2C(=O)N(c3ccc(OC)cc3)C(=O)/C2=N\NC(N)=O)cc1 (stereo not drawn)
TGI [2]: > 100 µM
TGI [3]: > 100 µM
TGI [4]: > 100 µM
TGI [8]: > 100 µM

O=S(=O)(O)SCCNCCCCCC1CCCCC1
TGI [1]: 18.5 µM
TGI [9]: 26.1 µM

O=C(/C=C/c1ccc([N+](=O)[O-])cc1)c1cccc(Nc2nc(Nc3ccccc3)nc(Nc3ccccc3)n2)c1
GI50 [1]: 20 µM
TGI [1]: > 100 µM

CCCCNC1=C(C(=O)OCC)/C(=N/NC(=O)c2ccccc2O)CO1
TGI [2]: > 100 µM
TGI [4]: > 100 µM
TGI [5]: > 100 µM
TGI [8]: > 100 µM
TGI [7]: > 100 µM

COc1ccc(C2=Nc3c/c(=C\c4c(O)[nH]c5cc(Cl)ccc45)ccc3=N2)cc1
GI50 [1]: 0.26 µM
TGI [1]: 1.97 µM

CCCCCCCCCCCCCCCCOCC(O)CO (stereo not drawn)
TGI [1]: 33.4 µM
TGI [9]: 60.6 µM

NNC(=O)C(O)C(O)C(=O)NN (stereo not drawn)
TGI [1]: > 100 µM
TGI [9]: > 100 µM

Cc1noc(/N=C2\C=C(Nc3onc(C)c3C)C(=O)c3ccccc32)c1C
TGI [2]: > 100 µM
TGI [3]: > 100 µM
TGI [4]: > 100 µM
TGI [5]: 17.1 µM
TGI [6]: > 100 µM
TGI [8]: > 100 µM
TGI [7]: > 100 µM

Cc1c(Cl)cccc1NC(=O)c1sc2nc3c(cc2c1N)CCCC3
GI50 [1]: 0.226 µM
TGI [1]: 0.775 µM

O=C1C=Cc2ncccc2C1=O
TGI [2]: 33.6 µM
TGI [3]: 30.9 µM
TGI [4]: > 63.2 µM
TGI [6]: 39.5 µM
TGI [8]: > 66.5 µM
TGI [7]: 39.3 µM

CCCCCCCCCCCCCCCCCC(=O)NCC(COP(=O)(O)O)OCC (stereo not drawn)
TGI [2]: > 100 µM
TGI [3]: > 100 µM
TGI [5]: > 100 µM
TGI [6]: 77.2 µM
TGI [8]: 83.3 µM
TGI [7]: > 100 µM

O=C(/C=C/c1ccccc1)CCC1C(=O)NC(=S)NC1=O
TGI [1]: > 100 µM

O=C(CCCCCCCCC(=O)N/N=C\c1cc(Cl)ccc1O)N/N=C\c1cc(Cl)ccc1O
GI50 [1]: 0.625 µM
TGI [1]: > 100 µM

CN1CCN(c2ccc3nc(-c4ccc(OCCCCN5CCN(CCCCN6C(=O)c7cccc8cccc(c78)C6=O)CC5)cc4)[nH]c3c2)CC1
GI50 [1]: 41 µM
TGI [1]: > 100 µM

COc1cc(/C=N/NC(=O)c2ccccc2Nc2cccc(C(F)(F)F)c2)cc(OC)c1OC
GI50 [1]: 0.476 µM
TGI [1]: 1.67 µM

Nc1ccn(C2OC(C(OC3OC(CO)C(O)C(N)C3O)C(O)C(O)C(O)C(O)CO)C(N)C(O)C2O)c(=O)n1 (stereo not drawn)
TGI [1]: > 100 µM
TGI [9]: > 100 µM

Oc1ccc(Cl)cc1/C=N\NC(=S)N/N=C/c1cc(Cl)ccc1O
GI50 [1]: 3.74 µM
TGI [1]: > 100 µM

COc1cc2c(cc1OCCCOc1ccc(-c3nc4ccc(N5CCN(C)CC5)cc4[nH]3)cc1)N=C[C@@H]1CCCN1C2=O
GI50 [1]: < 0.01 µM
TGI [1]: < 0.01 µM

COc1cc(Cn2c(-c3ccccc3)cc3c2-c2oncc2CC3)cc(OC)c1
GI50 [1]: 0.0815 µM
TGI [1]: 0.34 µM

Cn1cc(NC(=O)Nc2cc(C(=O)Nc3cc(C(=O)Nc4cc(S(=O)(=O)O)c5cc(S(=O)(=O)O)cc(S(=O)(=O)O)c5c4)n(C)c3)n(C)c2)cc1C(=O)Nc1cc(C(=O)Nc2cc(S(=O)(=O)O)c3cc(S(=O)(=O)O)cc(S(=O)(=O)O)c3c2)n(C)c1
TGI [1]: > 100 µM
TGI [9]: > 100 µM

CC1=CC(=O)NP(=O)(C23CC4CC(CC(C4)C2)C3)N1 (stereo not drawn)
TGI [3]: > 100 µM
TGI [4]: > 100 µM
TGI [5]: > 100 µM
TGI [6]: > 100 µM
TGI [8]: > 100 µM
TGI [7]: > 100 µM

CC(C)(C)Sc1nnc(SC(C)(C)C)c2c(=O)[nH]nc(SC(C)(C)C)c12
TGI [2]: 15.5 µM
TGI [3]: 21.3 µM
TGI [4]: 22.1 µM
TGI [5]: 14.8 µM
TGI [6]: 20.5 µM
TGI [8]: 25.8 µM
TGI [7]: 28.7 µM
